Reference: article PMC10257182, “Discovery of senolytics using machine learning” (Nature Communications, 2023)
Read-outs that look alike come from different tables or passages of the source.

How the values were obtained:
[1] = test system: non-senescent control IMR90 ER:RAS cells; experiment: Nuclei count (Hoechst, high content imaging) senolytic assay, OIS model, non-senescent control cells; assay type: cell-based, human; conditions: Homo sapiens
From the text: (§1) To test for senolytic activity, we compared the effect of each compound on the total cell number (automated high content image-based analysis of total number of nuclei per well) in non-senescent and senescent IMR90 ER:RAS cultures treated with the top hits from the computational screen (Figs. 2e and 3a–d and Supplementary Fig. 4a–c). The drop in cell number compared to untreated controls is indicated by the nuclei count and reflects cell death[13],[15]. As positive control, we employed ouabain, a cardiac glycoside with well characterised senolytic activity.
(§2) We performed experimental validation of the compounds with z-score > 8 (Fig. 2e). […] We employed two cellular models of senescence: one of OIS and a second one of TIS. For the OIS case, we utilised IMR90 ER:RAS cells with 4-OHT at 100 nM. […] For the TIS model, we used A549 cells with etoposide at 100 μM. The exposure of the cells to etoposide lasted 48 h, after which period the cells were cultivated for a further three days with normal media.
(§3) IMR90 (CCL-186) human foetal lung fibroblasts and A549 (CCL-185) human lung adenocarcinoma cells were obtained from the American Type Culture Collection (ATCC, Manassas, VA). The cell lines were confirmed to be mycoplasma negative (Lonza MycoAlert, cat #LT07-118). IMR90 ER:RAS is a derivative of IMR90 cells expressing a switchable version of oncogenic H-Ras[84]. IMR90 ER:RAS and A549 cells were maintained in Dulbecco’s Modified Eagle Medium (DMEM, ThermoFisher) supplemented with foetal bovine serum (10%), L-glutamine (2 mM, ThermoFisher), and antibiotic-antimycotic solution (1%, ThermoFisher) and incubated under standard tissue culture conditions (37 °C and 5% CO2). For induction of the senescent phenotype, IMR90-ER:RAS cells were cultured in hydroxytamoxifen (4-OHT) (Sigma) added media at 100 nM final concentration. IMR90 were kept in culture for over 27 passages for replicative senescence. Cells were tested for mycoplasma on a regular basis.
(§4) Cells were seeded (50 μL per well) into 384-well plates (IMR90 ER:RAS cells in Nunc Optical Bottom Polybase Microplates [#142761, Thermo Scientific, Rochester, NY] and A549 cells in CELLSTAR Cell Culture Microplates [#781091, Greiner Bio-One, Kremsmünster, Austria]). Cells were incubated under standard tissue culture conditions for 24 h before the addition of compounds. Passage 14 IMR90 ER:RAS cells were seeded at 1300 cells per well in the control condition, and at 1600 cells per well in the senescent case. Passage 34 A549 cells were seeded at 7000 cells per well in the control condition, and at 10,000 cells per well in the senescent case.
(§5) Dose response plates were prepared with a DMSO control and a 10-point […] concentration range, and added to the compounds using a D300e digital dispenser (Tecan Trading AG, Switzerland) at a final concentration of between 10 μM and 10 nM. Every screened condition was carried out in triplicate. After 72 h of incubation with exposure to the compounds, cells were fixed by the addition of an equal volume of formaldehyde (8%, 50 μL; #BP531-500, Fisher Bioreagents, Fisher Scientific, Loughborough, Leicestershire) to the existing media, incubated at room temperature (30 min), and washed three times in phosphate-buffered saline (PBS). Cells were then permeabilised in Triton-X100 (0.1%, 50 μL) and incubated at room temperature (30 min) followed by three more washes with PBS.
(§6) Cells were stained with Hoechst 33342 for nuclei count (excitation/emission wavelength at 387/447 […], DAPI channel, original concentration at 10 mg/ml, final concentration at 2 μg/ml; H1399, Molecular Probes, Eugene, OR). The staining solution was prepared in bovine serum albumin solution (10%). The staining solution was added to each well (30 μL) and incubated in the dark at room temperature (30 min), followed by three washes with PBS and no final aspiration. Plates were foil sealed.

[2] = test system: senescent IMR90 ER:RAS cells (4-OHT-induced); experiment: Nuclei count (Hoechst, high content imaging) senolytic assay, oncogene-induced senescence (OIS) model, senescent cells; assay type: cell-based, human
From the text: as §1, §2, §3, §4, §5, §6

C[C@@H]1O[C@@H](O[C@H]2C[C@@H](O)[C@]3(CO)[C@H]4[C@H](O)C[C@]5(C)[C@@H](C6=CC(=O)OC6)CC[C@]5(O)[C@@H]4CC[C@]3(O)C2)[C@H](O)[C@H](O)[C@H]1O [Ouabain, ouabain, reference compound]
viability at 10 µM ([1]; IMR-90, 72 h, Control, log (dose) [M] -5, 72 h, mean n=3 (Fig 3C), read-out: Mean % Cell Survival): 15.9% | viability at 4.677 µM ([1]; IMR-90, 72 h, Control, log (dose) [M] -5.33, 72 h, mean n=3 (Fig 3C), read-out: Mean % Cell Survival): 22.3% | viability at 2.188 µM ([1]; IMR-90, 72 h, Control, log (dose) [M] -5.66, 72 h, mean n=3 (Fig 3C), read-out: Mean % Cell Survival): 23.9% | viability at 1 µM ([1]; IMR-90, 72 h, Control, log (dose) [M] -6, 72 h, mean n=3 (Fig 3C), read-out: Mean % Cell Survival): 27% | viability at 0.4677 µM ([1]; IMR-90, 72 h, Control, log (dose) [M] -6.33, 72 h, mean n=3 (Fig 3C), read-out: Mean % Cell Survival): 29.6% | viability at 0.2188 µM ([1]; IMR-90, 72 h, Control, log (dose) [M] -6.66, 72 h, mean n=3 (Fig 3C), read-out: Mean % Cell Survival): 46.7% | viability at 0.1 µM ([1]; IMR-90, 72 h, Control, log (dose) [M] -7, 72 h, mean n=3 (Fig 3C), read-out: Mean % Cell Survival): 60.8% | viability at 0.04677 µM ([1]; IMR-90, 72 h, Control, log (dose) [M] -7.33, 72 h, mean n=3 (Fig 3C), read-out: Mean % Cell Survival): 78.1% | viability at 0.02188 µM ([1]; IMR-90, 72 h, Control, log (dose) [M] -7.66, 72 h, mean n=3 (Fig 3C), read-out: Mean % Cell Survival): 87.3% | viability at 0.01 µM ([1]; IMR-90, 72 h, Control, log (dose) [M] -8, 72 h, mean n=3 (Fig 3C), read-out: Mean % Cell Survival): 88.3% | viability at 0.0464 µM ([1]; IMR-90, Control, 46.4 nM, normalised to DMSO, individual experiments (Fig 3B), read-out: % Cell Survival): 78.1% | viability at 10 µM ([1]; IMR-90, control cells, log (dose) [M] -5, read-out: % Cell Survival): 10.9% | viability at 4.677 µM ([1]; IMR-90, control cells, log (dose) [M] -5.33, read-out: % Cell Survival): 23.1% | viability at 2.188 µM ([1]; IMR-90, control cells, log (dose) [M] -5.66, read-out: % Cell Survival): 27% | viability at 1 µM ([1]; IMR-90, control cells, log (dose) [M] -6, read-out: % Cell Survival): 27.3% | viability at 0.4677 µM ([1]; IMR-90, control cells, log (dose) [M] -6.33, read-out: % Cell Survival): 29.4% | viability at 0.2188 µM ([1]; IMR-90, control cells, log (dose) [M] -6.66, read-out: % Cell Survival): 46% | viability at 0.1 µM ([1]; IMR-90, control cells, log (dose) [M] -7, read-out: % Cell Survival): 62.2% | viability at 0.04677 µM ([1]; IMR-90, control cells, log (dose) [M] -7.33, read-out: % Cell Survival): 81.7% | viability at 0.02188 µM ([1]; IMR-90, control cells, log (dose) [M] -7.66, read-out: % Cell Survival): 81.6% | viability at 0.01 µM ([1]; IMR-90, control cells, log (dose) [M] -8, read-out: % Cell Survival): 86% | IC50 ([1]; IMR-90, OIS model, non-senescent IMR90 ER:RAS, nuclei count, 72 h): 0.231 µM | viability at 10 µM ([2]; Homo sapiens, IMR-90, 72 h, Senescent, log (dose) [M] -5, 72 h, mean n=3 (Fig 3C), read-out: Mean % Cell Survival): 2.57% | viability at 4.677 µM ([2]; Homo sapiens, IMR-90, 72 h, Senescent, log (dose) [M] -5.33, 72 h, mean n=3 (Fig 3C), read-out: Mean % Cell Survival): 2.79% | viability at 2.188 µM ([2]; Homo sapiens, IMR-90, 72 h, Senescent, log (dose) [M] -5.66, 72 h, mean n=3 (Fig 3C), read-out: Mean % Cell Survival): 3.51% | viability at 1 µM ([2]; Homo sapiens, IMR-90, 72 h, Senescent, log (dose) [M] -6, 72 h, mean n=3 (Fig 3C), read-out: Mean % Cell Survival): 4.22% | viability at 0.4677 µM ([2]; Homo sapiens, IMR-90, 72 h, Senescent, log (dose) [M] -6.33, 72 h, mean n=3 (Fig 3C), read-out: Mean % Cell Survival): 4.07% | viability at 0.2188 µM ([2]; Homo sapiens, IMR-90, 72 h, Senescent, log (dose) [M] -6.66, 72 h, mean n=3 (Fig 3C), read-out: Mean % Cell Survival): 2.69% | viability at 0.1 µM ([2]; Homo sapiens, IMR-90, 72 h, Senescent, log (dose) [M] -7, 72 h, mean n=3 (Fig 3C), read-out: Mean % Cell Survival): 4.75% | viability at 0.04677 µM ([2]; Homo sapiens, IMR-90, 72 h, Senescent, log (dose) [M] -7.33, 72 h, mean n=3 (Fig 3C), read-out: Mean % Cell Survival): 11.8% | viability at 0.02188 µM ([2]; Homo sapiens, IMR-90, 72 h, Senescent, log (dose) [M] -7.66, 72 h, mean n=3 (Fig 3C), read-out: Mean % Cell Survival): 73% | viability at 0.01 µM ([2]; Homo sapiens, IMR-90, 72 h, Senescent, log (dose) [M] -8, 72 h, mean n=3 (Fig 3C), read-out: Mean % Cell Survival): 89.4% | viability at 10 µM ([2]; Homo sapiens, IMR-90, senescence cells, log (dose) [M] -5, read-out: % Cell Survival): 2.5% | viability at 4.677 µM ([2]; Homo sapiens, IMR-90, senescence cells, log (dose) [M] -5.33, read-out: % Cell Survival): 2.14% | viability at 2.188 µM ([2]; Homo sapiens, IMR-90, senescence cells, log (dose) [M] -5.66, read-out: % Cell Survival): 4.05% | viability at 1 µM ([2]; Homo sapiens, IMR-90, senescence cells, log (dose) [M] -6, read-out: % Cell Survival): 4.29% | viability at 0.4677 µM ([2]; Homo sapiens, IMR-90, senescence cells, log (dose) [M] -6.33, read-out: % Cell Survival): 5.48% | viability at 0.2188 µM ([2]; Homo sapiens, IMR-90, senescence cells, log (dose) [M] -6.66, read-out: % Cell Survival): 3.1% | viability at 0.1 µM ([2]; Homo sapiens, IMR-90, senescence cells, log (dose) [M] -7, read-out: % Cell Survival): 4.88% | viability at 0.04677 µM ([2]; Homo sapiens, IMR-90, senescence cells, log (dose) [M] -7.33, read-out: % Cell Survival): 11.2% | viability at 0.02188 µM ([2]; Homo sapiens, IMR-90, senescence cells, log (dose) [M] -7.66, read-out: % Cell Survival): 70.8% | viability at 0.01 µM ([2]; Homo sapiens, IMR-90, senescence cells, log (dose) [M] -8, read-out: % Cell Survival): 86.1% | IC50 ([2]; Homo sapiens, IMR-90, OIS model, 4-OHT-induced IMR90 ER:RAS, nuclei count, 72 h): 0.028 µM | dose showing the clearest / optimal senolytic effect ([2]; OIS IMR90 ER:RAS, Hoechst nuclei count, marginal effect on normal cells): 46.4 nM
